Data as given in ChEMBL document CHEMBL4665643 (Bioorg Med Chem Lett, 2019).

Key:
[1] = target: Fibroblast growth factor receptor 1 (Homo sapiens) (UniProt P11362); assay: Inhibition of recombinant human His-tagged FGFR1 (308 to 731 residues) expressed in baculovirus expression system using Tyr 01 as substrate at 0.1 uM incubated for 60 mins by Z'-Lyte assay relative to control
[2] = target: T1, Tyrosine-protein kinase JAK1 (Homo sapiens, UniProt P23458); assay: biochemical
Description: Inhibition of recombinant human JAK1 (854 to 1154 residues) expressed in insect cells using Y1-B as substrate incubated for 30 mins by microfluidic mobility shift assay

[3] = target: T2, Beta-adrenergic receptor kinase 1 (Homo sapiens) (UniProt P25098); assay: Inhibition of recombinant human His-tagged full length GRK2 expressed in baculovirus expression system using Ser/Thr 16 as substrate at 0.1 uM incubated for 60 mins by Z'-Lyte assay relative to control
T2 sequence (whole entry): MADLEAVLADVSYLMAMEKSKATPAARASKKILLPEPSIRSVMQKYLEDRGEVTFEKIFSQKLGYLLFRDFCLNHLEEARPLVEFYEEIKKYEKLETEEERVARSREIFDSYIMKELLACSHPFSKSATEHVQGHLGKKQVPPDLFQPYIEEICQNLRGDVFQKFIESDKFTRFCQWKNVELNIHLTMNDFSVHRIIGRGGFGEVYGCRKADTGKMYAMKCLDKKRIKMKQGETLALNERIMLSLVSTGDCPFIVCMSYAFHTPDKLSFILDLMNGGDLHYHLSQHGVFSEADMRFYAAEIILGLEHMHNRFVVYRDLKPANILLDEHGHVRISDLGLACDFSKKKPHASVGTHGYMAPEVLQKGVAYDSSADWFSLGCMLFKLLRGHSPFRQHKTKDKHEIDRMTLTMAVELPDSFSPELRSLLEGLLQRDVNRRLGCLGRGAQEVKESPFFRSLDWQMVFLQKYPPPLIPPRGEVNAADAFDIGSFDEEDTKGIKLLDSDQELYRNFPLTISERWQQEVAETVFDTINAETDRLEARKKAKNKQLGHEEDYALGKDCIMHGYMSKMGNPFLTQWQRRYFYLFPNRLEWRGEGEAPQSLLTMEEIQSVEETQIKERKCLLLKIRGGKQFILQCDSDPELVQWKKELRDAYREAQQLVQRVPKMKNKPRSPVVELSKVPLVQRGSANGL

in vitro = details: dog, MDCK
Description: Efflux ratio of apparent permeability basolateral to apical over apical to basolateral side in MDCK cells at 10 uM incubated upto 180 mins by LC/MS-MS analysis

[4] = target: T3, Interleukin-1 receptor-associated kinase 4 (Homo sapiens) (UniProt Q9NWZ3); assay: Inhibition of recombinant human His-tagged full length IRAK4 expressed in baculovirus expression system using Ser/Thr 07 as substrate at 0.1 uM incubated for 60 mins by Z'-Lyte assay relative to control
T3 sequence (whole entry): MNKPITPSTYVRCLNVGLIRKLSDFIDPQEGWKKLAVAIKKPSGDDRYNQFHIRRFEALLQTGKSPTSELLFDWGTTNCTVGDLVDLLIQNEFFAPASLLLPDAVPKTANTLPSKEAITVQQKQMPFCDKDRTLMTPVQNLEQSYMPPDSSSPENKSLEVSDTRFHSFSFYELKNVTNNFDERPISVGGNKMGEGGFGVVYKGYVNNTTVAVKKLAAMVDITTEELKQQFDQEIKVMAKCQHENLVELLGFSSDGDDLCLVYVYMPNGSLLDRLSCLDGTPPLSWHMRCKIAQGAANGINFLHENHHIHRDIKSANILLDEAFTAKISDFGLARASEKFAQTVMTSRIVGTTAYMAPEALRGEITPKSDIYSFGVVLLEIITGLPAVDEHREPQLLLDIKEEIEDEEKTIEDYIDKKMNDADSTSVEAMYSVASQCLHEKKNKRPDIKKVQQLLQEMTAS

[5] = target: Mitogen-activated protein kinase 1 (Homo sapiens) (UniProt P28482); assay: Inhibition of recombinant human GST-tagged full length ERK2 expressed in baculovirus expression system using Ser/Thr 03 as substrate at 0.1 uM incubated for 60 mins by Z'-Lyte assay relative to control
Chain of Mitogen-activated protein kinase 1 (Homo sapiens) (P28482 whole entry, the tested form may be a part): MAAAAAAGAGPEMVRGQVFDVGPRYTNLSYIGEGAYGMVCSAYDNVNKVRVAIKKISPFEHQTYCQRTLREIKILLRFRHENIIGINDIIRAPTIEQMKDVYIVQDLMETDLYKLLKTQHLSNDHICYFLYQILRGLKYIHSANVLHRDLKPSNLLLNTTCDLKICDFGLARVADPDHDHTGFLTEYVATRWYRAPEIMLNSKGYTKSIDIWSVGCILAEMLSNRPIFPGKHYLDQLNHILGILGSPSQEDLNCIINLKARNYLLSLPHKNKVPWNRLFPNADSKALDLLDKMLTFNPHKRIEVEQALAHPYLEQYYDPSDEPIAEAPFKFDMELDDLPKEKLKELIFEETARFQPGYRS

[6] = target: Angiopoietin-1 receptor (Homo sapiens) (UniProt Q02763); assay: Inhibition of recombinant human GST-tagged TIE2 (817 to 1101 residues) expressed in baculovirus expression system using […] as substrate at 0.1 uM incubated for 60 mins by Z'-Lyte assay relative to control
[7] = target: Receptor tyrosine-protein kinase erbB-2 (Homo sapiens) (UniProt P04626); assay: Inhibition of recombinant human His-tagged ERBB2 (676 to 1255 residues) expressed in baculovirus expression system using Tyr 06 as substrate at 0.1 uM incubated for 60 mins by Z'-Lyte assay relative to control
[8] = target: Cyclin-dependent kinase 1/cyclin B1 (Homo sapiens) (UniProt P06493+P14635); assay: Inhibition of recombinant human His-tagged full length CDK1/Cyclin B expressed in baculovirus expression system using Ser/Thr 18 as substrate at 0.1 uM incubated for 60 mins by Z'-Lyte assay relative to control
[9] = target: T1, Tyrosine-protein kinase JAK1
[10] = target: Focal adhesion kinase 1 (Homo sapiens) (UniProt Q05397); assay: Inhibition of recombinant human GST-tagged full length FAK expressed in baculovirus expression system using Tyr 07 as substrate at 0.1 uM incubated for 60 mins by Z'-Lyte assay relative to control
Chain of Focal adhesion kinase 1 (Homo sapiens) (Q05397 2-1052 limits assumed): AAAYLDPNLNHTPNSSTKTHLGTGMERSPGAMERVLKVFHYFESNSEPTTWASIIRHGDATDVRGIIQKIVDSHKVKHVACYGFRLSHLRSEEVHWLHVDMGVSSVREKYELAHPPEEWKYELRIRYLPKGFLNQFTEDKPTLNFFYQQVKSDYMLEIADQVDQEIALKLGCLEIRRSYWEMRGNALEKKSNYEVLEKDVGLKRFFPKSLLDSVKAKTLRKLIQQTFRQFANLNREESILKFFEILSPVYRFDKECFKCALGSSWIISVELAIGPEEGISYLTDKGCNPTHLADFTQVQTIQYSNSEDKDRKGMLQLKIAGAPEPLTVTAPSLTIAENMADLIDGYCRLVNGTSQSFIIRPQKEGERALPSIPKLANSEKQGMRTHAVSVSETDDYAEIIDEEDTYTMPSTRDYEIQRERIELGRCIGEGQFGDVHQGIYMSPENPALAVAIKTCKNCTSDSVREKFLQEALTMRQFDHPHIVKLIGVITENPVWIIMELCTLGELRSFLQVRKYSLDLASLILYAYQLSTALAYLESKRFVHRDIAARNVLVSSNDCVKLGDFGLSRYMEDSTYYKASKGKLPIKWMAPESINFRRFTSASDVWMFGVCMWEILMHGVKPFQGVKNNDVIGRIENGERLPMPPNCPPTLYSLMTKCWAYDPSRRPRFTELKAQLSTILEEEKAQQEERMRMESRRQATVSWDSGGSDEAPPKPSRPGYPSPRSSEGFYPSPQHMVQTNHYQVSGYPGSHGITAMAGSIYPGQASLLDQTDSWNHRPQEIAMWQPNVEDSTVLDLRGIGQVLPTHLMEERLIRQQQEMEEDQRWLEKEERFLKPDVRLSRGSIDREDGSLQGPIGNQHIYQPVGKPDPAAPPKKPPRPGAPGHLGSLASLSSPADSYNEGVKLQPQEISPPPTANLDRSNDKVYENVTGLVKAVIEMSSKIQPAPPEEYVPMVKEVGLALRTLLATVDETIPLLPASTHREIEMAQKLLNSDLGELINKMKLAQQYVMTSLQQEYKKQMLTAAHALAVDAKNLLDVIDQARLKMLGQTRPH

[11] = target: Tyrosine-protein kinase CSK (Homo sapiens) (UniProt P41240); assay: Inhibition of recombinant human GST-tagged full length CSK expressed in Escherichia coli expression system using Tyr 02 as substrate at 0.1 uM incubated for 60 mins by Z'-Lyte assay relative to control
Chain of Tyrosine-protein kinase CSK (Homo sapiens) (P41240 2-450 limits assumed): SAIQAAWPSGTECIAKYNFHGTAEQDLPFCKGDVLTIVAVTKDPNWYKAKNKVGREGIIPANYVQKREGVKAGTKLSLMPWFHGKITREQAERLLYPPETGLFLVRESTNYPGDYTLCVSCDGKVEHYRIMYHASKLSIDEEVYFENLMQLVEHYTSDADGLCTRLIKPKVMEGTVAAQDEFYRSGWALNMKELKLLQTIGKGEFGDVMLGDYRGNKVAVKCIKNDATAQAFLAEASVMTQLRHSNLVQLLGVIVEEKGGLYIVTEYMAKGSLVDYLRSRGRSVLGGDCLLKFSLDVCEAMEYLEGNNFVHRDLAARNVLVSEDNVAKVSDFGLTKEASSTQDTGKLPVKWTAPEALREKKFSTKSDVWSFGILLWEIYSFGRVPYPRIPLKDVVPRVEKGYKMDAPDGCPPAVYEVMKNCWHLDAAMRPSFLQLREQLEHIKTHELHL

[12] = target: Serine/threonine-protein kinase Sgk1 (Homo sapiens) (UniProt O00141); assay: Inhibition of recombinant human GST-tagged […] SGK1 (60 to 431 residues) expressed in baculovirus expression system using Ser/Thr 06 as substrate at 0.1 uM incubated for 60 mins by Z'-Lyte assay relative to control
[13] = target: T4, Tyrosine-protein kinase JAK2 (Homo sapiens, UniProt O60674); assay: Inhibition of recombinant human GST-tagged JAK2 (809 to 1153 residues) expressed in baculovirus expression system using Tyr 06 as substrate at 0.1 uM incubated for 60 mins by Z'-lyte assay relative to control
T4 sequence (O60674 whole entry, the tested form may be a part): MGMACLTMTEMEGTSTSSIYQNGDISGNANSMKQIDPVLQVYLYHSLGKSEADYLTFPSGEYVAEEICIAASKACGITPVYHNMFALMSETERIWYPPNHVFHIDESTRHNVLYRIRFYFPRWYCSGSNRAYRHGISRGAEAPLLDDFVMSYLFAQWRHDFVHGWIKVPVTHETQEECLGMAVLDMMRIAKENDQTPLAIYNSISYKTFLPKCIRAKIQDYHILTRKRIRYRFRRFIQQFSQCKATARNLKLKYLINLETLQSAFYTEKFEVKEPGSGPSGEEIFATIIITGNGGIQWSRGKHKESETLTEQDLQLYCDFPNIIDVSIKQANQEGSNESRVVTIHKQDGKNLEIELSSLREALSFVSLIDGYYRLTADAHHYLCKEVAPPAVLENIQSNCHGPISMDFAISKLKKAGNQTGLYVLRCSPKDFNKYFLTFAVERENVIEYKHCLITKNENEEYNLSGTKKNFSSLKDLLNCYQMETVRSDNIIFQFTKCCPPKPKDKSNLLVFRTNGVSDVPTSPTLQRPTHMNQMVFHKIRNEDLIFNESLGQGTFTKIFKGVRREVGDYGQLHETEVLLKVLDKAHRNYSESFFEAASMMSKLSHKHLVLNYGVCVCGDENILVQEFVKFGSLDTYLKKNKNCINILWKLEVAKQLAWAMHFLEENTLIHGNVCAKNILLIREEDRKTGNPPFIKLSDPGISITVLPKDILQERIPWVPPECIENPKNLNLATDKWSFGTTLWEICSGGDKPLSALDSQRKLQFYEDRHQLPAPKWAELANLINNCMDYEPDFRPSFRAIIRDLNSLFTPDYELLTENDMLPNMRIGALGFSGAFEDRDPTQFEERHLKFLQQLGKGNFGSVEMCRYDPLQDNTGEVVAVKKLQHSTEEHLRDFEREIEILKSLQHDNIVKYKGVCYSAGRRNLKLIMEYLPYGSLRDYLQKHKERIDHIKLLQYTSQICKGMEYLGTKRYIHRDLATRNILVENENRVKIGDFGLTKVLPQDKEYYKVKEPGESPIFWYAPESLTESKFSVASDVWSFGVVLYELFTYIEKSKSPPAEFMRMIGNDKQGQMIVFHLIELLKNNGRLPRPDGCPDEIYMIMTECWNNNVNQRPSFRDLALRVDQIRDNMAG

[14] = target: Protein kinase C beta type (Homo sapiens) (UniProt P05771); assay: Inhibition of recombinant human GST-tagged full length PKCbeta2 expressed in insect expression system using Ser/Thr 07 as substrate at 0.1 uM incubated for 60 mins by Z'-lyte assay relative to control
Chain of Protein kinase C beta type (Homo sapiens) (P05771 2-671 limits assumed): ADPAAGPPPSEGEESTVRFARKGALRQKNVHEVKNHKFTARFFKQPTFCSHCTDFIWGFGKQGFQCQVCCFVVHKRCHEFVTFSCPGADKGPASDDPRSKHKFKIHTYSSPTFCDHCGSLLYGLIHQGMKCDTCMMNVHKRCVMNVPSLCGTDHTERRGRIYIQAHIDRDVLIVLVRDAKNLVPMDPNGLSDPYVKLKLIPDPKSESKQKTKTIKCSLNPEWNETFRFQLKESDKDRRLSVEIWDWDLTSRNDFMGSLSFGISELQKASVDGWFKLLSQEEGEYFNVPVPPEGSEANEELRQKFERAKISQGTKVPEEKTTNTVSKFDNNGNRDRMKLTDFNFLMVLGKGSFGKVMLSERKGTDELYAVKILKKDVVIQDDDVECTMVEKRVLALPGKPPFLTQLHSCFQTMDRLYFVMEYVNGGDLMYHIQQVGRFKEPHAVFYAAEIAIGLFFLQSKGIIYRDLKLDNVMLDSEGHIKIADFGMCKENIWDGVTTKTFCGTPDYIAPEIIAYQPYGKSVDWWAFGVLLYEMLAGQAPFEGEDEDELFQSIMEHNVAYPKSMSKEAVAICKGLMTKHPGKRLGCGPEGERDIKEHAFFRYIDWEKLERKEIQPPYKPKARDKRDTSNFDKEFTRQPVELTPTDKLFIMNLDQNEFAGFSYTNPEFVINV

[15] = target: Inhibitor of nuclear factor kappa-B kinase subunit alpha (Homo sapiens) (UniProt O15111); assay: Inhibition of recombinant human His-tagged full length IKKalpha expressed in baculovirus expression system at 0.1 uM incubated for 60 mins by Adapta assay relative to control
[16] = target: T4, Tyrosine-protein kinase JAK2
Description: Inhibition of recombinant human JAK2 (812 to 1132 residues) expressed in insect cells using Y1-B as substrate incubated for 30 mins by microfluidic mobility shift assay

[17] = target: Leucine-rich repeat serine/threonine-protein kinase 2 (Homo sapiens, UniProt Q5S007); assay: Inhibition of recombinant human GST-tagged LRRK2 (970 to 2527 residues) expressed in baculovirus expression system using LRRKtide as substrate incubated for 60 mins by Adapta assay

T1 sequence (P23458 whole entry): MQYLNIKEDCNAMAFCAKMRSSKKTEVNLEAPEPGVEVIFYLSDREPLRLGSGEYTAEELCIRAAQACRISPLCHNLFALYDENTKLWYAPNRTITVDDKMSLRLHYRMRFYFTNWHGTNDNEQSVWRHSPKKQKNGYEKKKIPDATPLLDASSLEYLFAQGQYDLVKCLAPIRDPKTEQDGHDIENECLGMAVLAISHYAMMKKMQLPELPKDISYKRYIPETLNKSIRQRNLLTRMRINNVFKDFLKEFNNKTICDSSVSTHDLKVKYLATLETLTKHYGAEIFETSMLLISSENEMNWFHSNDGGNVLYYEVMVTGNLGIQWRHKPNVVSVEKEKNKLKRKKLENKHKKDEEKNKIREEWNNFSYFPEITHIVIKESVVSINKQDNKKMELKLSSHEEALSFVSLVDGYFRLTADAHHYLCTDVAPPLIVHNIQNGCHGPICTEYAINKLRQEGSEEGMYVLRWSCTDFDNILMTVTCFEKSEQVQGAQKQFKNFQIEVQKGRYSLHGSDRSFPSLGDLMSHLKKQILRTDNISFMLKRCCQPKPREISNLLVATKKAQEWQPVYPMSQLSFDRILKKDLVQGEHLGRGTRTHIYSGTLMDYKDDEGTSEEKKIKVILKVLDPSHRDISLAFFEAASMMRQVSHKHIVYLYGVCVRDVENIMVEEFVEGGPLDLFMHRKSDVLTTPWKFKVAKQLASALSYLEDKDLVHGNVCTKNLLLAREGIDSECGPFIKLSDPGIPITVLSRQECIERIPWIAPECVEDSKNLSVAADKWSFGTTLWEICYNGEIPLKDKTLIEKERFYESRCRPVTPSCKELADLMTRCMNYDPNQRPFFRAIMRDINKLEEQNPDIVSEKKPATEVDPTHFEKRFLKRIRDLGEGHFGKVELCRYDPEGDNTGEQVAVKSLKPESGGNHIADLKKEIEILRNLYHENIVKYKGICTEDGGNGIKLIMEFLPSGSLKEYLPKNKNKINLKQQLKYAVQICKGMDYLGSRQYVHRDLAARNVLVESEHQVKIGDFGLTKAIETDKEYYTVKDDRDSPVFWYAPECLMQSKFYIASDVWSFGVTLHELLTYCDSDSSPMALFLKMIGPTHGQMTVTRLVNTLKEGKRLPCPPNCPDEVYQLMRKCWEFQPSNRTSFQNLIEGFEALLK

Cn1cc(NC(=O)c2cnn3cccnc23)c(-c2cc(Cl)ccc2OC(F)F)n1
inhibition [1]: 6% | Ki [2]: 0.21 nM | inhibition [3]: 8% | efflux ratio at 3 h, 10 µM (in vitro): 0.55 | inhibition [4]: -4% | inhibition [5]: 4% | inhibition [6]: 3% | inhibition [7]: -1% | inhibition [8]: 4% | IC50 [9]: 1.7 nM | inhibition [10]: 15% | inhibition [11]: 2% | inhibition [12]: 7% | inhibition [13]: 98% | inhibition [14]: 12% | inhibition [15]: -3% | Ki [16]: 0.088 nM

O=C(Nc1c[nH]nc1-c1cc2ccccc2cc1OC(F)F)c1cnn2cccnc12
inhibition [1]: 1% | inhibition [3]: 0% | efflux ratio at 3 h, 10 µM (in vitro): 1.2 | inhibition [4]: 4% | inhibition [5]: -4% | inhibition [7]: -6% | inhibition [8]: 27% | IC50 [9]: 2.2 nM | inhibition [10]: 20% | inhibition [11]: 3% | inhibition [12]: -4% | inhibition [13]: 97% | inhibition [14]: 17% | inhibition [15]: 6% | IC50 [17]: 180 nM

O=C(Nc1c[nH]nc1-c1cc(Cl)ccc1OC(F)F)c1cnn2cccnc12
inhibition [1]: -1% | Ki [2]: 0.21 nM | inhibition [3]: 3% | efflux ratio at 3 h, 10 µM (in vitro): 1.1 | inhibition [4]: 0% | inhibition [5]: 1% | inhibition [6]: 12% | inhibition [7]: 1% | inhibition [8]: 53% | IC50 [9]: 1.2 nM | inhibition [10]: 14% | inhibition [11]: -2% | inhibition [14]: 21% | Ki [16]: 0.071 nM | IC50 [17]: 18 nM
